molecular target: PKM2 (Homo sapiens, UniProt P14618); assay: PKM2 Assay (activation, LDH-coupled, absorbance at 340 nm); assay type: biochemical; conditions: Table 4
Description: • PKM2 stock enzyme solution was diluted in Reaction Buffer • 2 μL of compound was added into each well first, and then 180 μL of the Reaction Mix was added. • Reaction mixture with compound (without ADP) was incubated for 30 minutes at 4° C. • Plates were re-equilibrated to room temperature prior to adding 20 μL ADP to initiate the reaction. • Reaction progress was measured as changes in absorbance at 340 nm wavelength at room temperature (25° C.) Reaction Mix: PKM2 (50 ng/well), ADP (0.7 mM), PEP (0.15 mM), NADH (180 μM), LDH (2 units) in Reaction Buffer Reaction Buffer: 100 mM KCl, 50 mM Tris pH 7.5, 5 mM MgCl2, 1 mM DTT, 0.03% BSA.
Representative compounds of the invention were tested for their ability to activate PKM2 using the above assay. For simplicity, the activation activity of these compounds is represented as an AC50 in Tables 4 and 5 and throughout the application. […] “B” refers to an activator of PKM2 with an EC50 between 100 nM and 500 nM. “C” refers to an activator of PKM2 with an EC50 between 500 nM and 1000 nM. “D” refers to an activator of PKM2 with an EC50 between 1 μM and 20 μM. “E” refers a compound whose activation of PKM2 was not measurable. “N/C” refers to AC50 data not available.

Chain of PKM2 (P14618 whole entry): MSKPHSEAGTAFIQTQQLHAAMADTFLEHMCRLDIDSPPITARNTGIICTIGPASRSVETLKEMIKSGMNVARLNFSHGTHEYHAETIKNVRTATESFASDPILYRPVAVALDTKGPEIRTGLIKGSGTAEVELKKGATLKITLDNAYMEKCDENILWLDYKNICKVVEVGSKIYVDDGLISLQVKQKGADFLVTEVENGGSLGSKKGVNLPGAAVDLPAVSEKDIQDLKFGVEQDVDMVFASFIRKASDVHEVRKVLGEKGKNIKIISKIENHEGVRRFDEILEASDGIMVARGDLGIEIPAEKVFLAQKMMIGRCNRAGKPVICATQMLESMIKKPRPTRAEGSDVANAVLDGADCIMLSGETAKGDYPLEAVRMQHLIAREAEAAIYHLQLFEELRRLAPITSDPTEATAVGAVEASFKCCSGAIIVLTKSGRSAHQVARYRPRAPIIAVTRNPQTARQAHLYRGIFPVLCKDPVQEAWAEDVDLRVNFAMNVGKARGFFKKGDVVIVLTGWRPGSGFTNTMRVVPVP

SMILES	AC50
C[C@@H]1CN(CC2CCCCC2)CCN1C(=O)c1ccc(NS(=O)(=O)c2cccc3cccnc23)cc1 [Compound 151, (R)—N-(4-(4-(cyclohexylmethyl)-2-methylpiperazine-1-carbonyl)phenyl)quinoline-8-sulfonamide]	< 100 nM
C[C@@H]1CN(C(=O)O[C@@H]2CCCOC2)CCN1C(=O)c1ccc(NS(=O)(=O)c2cccc3cccnc23)cc1 [Compound 127, (R)—((R)-tetrahydro-21′-pyran-3-yl)-3-methyl-4-(4-(quinoline-8-sulfonamido)benzoyl)piperazine-1-carboxylate]	100 to 500 nM
C[C@H]1CN(C(=O)O[C@@H]2CCOC2)CCN1C(=O)c1ccc(NS(=O)(=O)c2cccc3cccnc23)cc1 [Compound 166]	100 to 500 nM
C[C@H]1CN(CC2CCOC2)CCN1C(=O)c1ccc(NS(=O)(=O)c2cccc3cccnc23)cc1 (stereo partly drawn) [Compound 139, N-(4-((2S)-2-methyl-4-((tetrahydrofuran-3-yl)methyl)piperazine-1-carbonyl)phenyl)quinoline-8-sulfonamide]	100 to 500 nM

same assay, conditions: Table 5

SMILES	AC50
O=C(c1ccc(NS(=O)(=O)c2cccc3cccnc23)cc1)N1CCN(C[C@H]2CCOC2)CC1 [Compound 444, (R)— and (S)—N-(4-(4-((tetrahydrofuran-3-yl)methyl)piperazine-1-carbonyl)phenyl)quinoline-8-sulfonamide]	< 100 nM
O=C(c1ccc(NS(=O)(=O)c2cccc3cccnc23)c(OC(F)(F)F)c1)N1CCN(C2(c3ccccc3)CC2)CC1 [Compound 353, N-(4-(4-(1-phenylcyclopropyl)piperazine-1-carbonyl)-2-(trifluoromethoxy)phenyl)quinoline-8-sulfonamide]	500 to 1000 nM
O=C(c1ccc(NS(=O)(=O)c2cccc3cccnc23)cc1)N1CCN(C(=O)c2ncc[nH]2)CC1 [Compound 354, N-(4-(4-(1H-imidazole-2-carbonyl)piperazine-1-carbonyl)phenyl)quinoline-8-sulfonamide]	< 100 nM
O=C(c1ccc(NS(=O)(=O)c2cccc3cccnc23)cc1)N1CCN(C(=O)c2cn[nH]c2)CC1 [Compound 372]	< 100 nM
O=C(c1ccc(NS(=O)(=O)c2cccc3cccnc23)c(OC(F)(F)F)c1)N1CCN(Cc2ccc(Cl)cc2Cl)CC1 [Compound 374, N-(4-(4-(2,4-dichlorobenzyl)piperazine-1-carbonyl)-2-(trifluoromethoxy)phenyl)quinoline-8-sulfonamide]	500 to 1000 nM
O=C(c1ccc(NS(=O)(=O)c2cccc3cccnc23)cc1)N1CCN(C[C@@H]2CCOC2)CC1 [Compound 445, (R)— and (S)—N-(4-(4-((tetrahydrofuran-3-yl)methyl)piperazine-1-carbonyl)phenyl)quinoline-8-sulfonamide]	< 100 nM
O=C(c1ccc(NS(=O)(=O)c2cccc3cccnc23)c(OC(F)(F)F)c1)N1CCN(CCCc2ccccc2)CC1 [Compound 389]	500 to 1000 nM
O=C(OC1CCOCC1)N1CCN(C(=O)c2ccc(NS(=O)(=O)c3cccc4cccnc34)c(OC(F)(F)F)c2)CC1 [Compound 314, tetrahydro-2H-pyran-4-yl-4-(4-(quinoline-8-sulfonamido)-3-(trifluoromethoxy)benzoyl)piperazine-1-carboxylate]	1000 to 20000 nM
O=C(c1ccc(NS(=O)(=O)c2cccc3cccnc23)cc1)N1CCN(C2(c3ccccc3)CC2)CC1 [Compound 330, N-(4-(4-(1-phenylcyclopropyl)piperazine-1-carbonyl)phenyl)quinoline-8-sulfonamide]	< 100 nM
O=C(c1ccc(NS(=O)(=O)c2cccc3cccnc23)cc1Cl)N1CCN(Cc2cc(F)cc(F)c2)CC1 [Compound 426, N-(3-chloro-4-(4-(3,5-difluorobenzyl)piperazine-1-carbonyl)phenyl)quinoline-8-sulfonamide]	< 100 nM
O=C(c1ccc(NS(=O)(=O)c2cccc3cccnc23)cc1)N1CCN(Cc2cn[nH]c2)CC1 [Compound 385, N-(4-(4-((1H-pyrazol-4-yl)methyl)piperazine-1-carbonyl)phenyl)quinoline-8-sulfonamide]	< 100 nM

Source: patent US8889667B2 (Agios Pharmaceuticals, Inc, priority 2010, dated 2014)
